Values quoted from earlier work as cited in patent EP2408442B1, “PHARMACEUTICAL COMPOSITION PRESENTING ANTI-INFLAMMATORY PROPERTIES” (Bioxtract S.A., priority 2009, dated 2010).

Details: 42 or 84 mg of oral not formulated curcumin, including metabolised forms (glucuronides or sulfates)

Compound: COc1cc(C=CC(=O)CC(=O)C=Cc2ccc(O)c(OC)c2)ccc1O [curcumin, 1,7-bis(4-hydroxyl-3-methoxyphenyl)-1,6-heptadiene-3,5-dione]
- oral bioavailability: not bioavailable at all
